Data on 14 compounds can be found in US12509459B2, “Inhibitors of NLRP3 inflammasome” (BioAge Labs, Inc., priority 2024, dated 2025).

The target of experiment [1] is T1, NLRP3 (Homo sapiens, UniProt Q96P20). The experiment is described as follows: THP-1 cell-based NLRP3 activation assay. The note with it: PMA-differentiated THP-1 cells, LPS 100 ng/mL then 10 μM nigericin. Details: endogenous in cells; host or cells: THP-1 cells (PMA-differentiated, LPS-primed, nigericin-stimulated). In short, it runs like this:
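After 30 min compound preincubation, inflammasome activation was triggered with 10 μM nigericin (1 h) in LPS-primed (100 ng/mL, 3 h) THP-1 cells differentiated with PMA at 20 nM/24 h or 500 nM/3 h. CellTiter-Glo measured residual cell viability.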
Target sequence in this assay (Q96P20 whole entry): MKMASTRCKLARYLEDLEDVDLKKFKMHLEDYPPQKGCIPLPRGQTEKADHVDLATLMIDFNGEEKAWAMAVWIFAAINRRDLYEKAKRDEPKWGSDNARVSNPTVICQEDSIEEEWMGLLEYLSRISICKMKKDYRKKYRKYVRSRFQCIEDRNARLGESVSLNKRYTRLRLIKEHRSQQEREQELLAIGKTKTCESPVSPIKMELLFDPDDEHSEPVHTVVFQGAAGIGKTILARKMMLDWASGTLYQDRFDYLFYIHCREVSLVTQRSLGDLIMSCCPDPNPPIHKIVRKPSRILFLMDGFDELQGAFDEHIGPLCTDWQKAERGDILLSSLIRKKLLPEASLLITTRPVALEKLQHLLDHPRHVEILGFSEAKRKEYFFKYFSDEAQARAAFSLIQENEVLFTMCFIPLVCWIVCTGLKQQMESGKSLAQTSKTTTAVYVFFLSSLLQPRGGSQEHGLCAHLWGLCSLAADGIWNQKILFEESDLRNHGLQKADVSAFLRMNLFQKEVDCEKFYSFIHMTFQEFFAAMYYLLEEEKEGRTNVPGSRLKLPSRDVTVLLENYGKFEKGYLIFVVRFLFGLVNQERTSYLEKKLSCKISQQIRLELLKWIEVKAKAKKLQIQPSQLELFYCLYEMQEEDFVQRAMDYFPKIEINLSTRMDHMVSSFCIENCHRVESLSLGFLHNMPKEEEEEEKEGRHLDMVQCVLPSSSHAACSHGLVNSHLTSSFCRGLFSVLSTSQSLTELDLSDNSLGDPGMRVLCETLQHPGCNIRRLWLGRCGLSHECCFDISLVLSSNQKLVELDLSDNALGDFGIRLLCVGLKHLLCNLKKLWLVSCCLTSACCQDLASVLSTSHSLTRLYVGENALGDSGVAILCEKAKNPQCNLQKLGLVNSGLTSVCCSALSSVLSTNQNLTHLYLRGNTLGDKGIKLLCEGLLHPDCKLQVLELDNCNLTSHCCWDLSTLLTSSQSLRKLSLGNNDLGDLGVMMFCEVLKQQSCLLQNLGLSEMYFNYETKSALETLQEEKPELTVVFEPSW

Experiment [2] addresses T1, NLRP3. The experiment is described as follows: Cryo-EM NLRP3 epitope determination. The experiment is classed as binding. On the set-up: made in house; host or cells: Sf9 insect cells (baculovirus). To be noted: cryo-EM of NLRP3·Compound 007 complex, 3.00 Å resolution, FIG. 1. The source says: Compound 007 of the disclosure was used as an exemplary compound for determining the epitope to NLRP3, using cryogenic electron microscopy (cryo-EM).
Full length, human NLRP3 (3-1036, UniProt accession code Q96P20), codon-optimized for Spodoptera frugiperda, was cloned in an in-house modified pACE-Bac1 vector containing an N-terminal MBP-tag, followed by a Tobacco etch virus (TEV) protease cleavage site. For recombinant protein expression of MBP-NLRP3, 1 L of Sf9 insect cells were infected with 3% v/v viral stock of the second virus passage. The expression culture was incubated for 72 h at 27° C. and 80 rpm, and was subsequently harvested by centrifugation at 2000 rpm for 20 min. […] Elution fractions were analyzed by SDS-PAGE and negative stain electron microscopy (EM), before they were plunge frozen for cryo-EM analysis.
The purified NLRP3·Compound 007 complex was applied onto glow-discharged EM-grids (Quantifoil Cu300 R2/1+2 nm carbon support film), incubated for 30s at 100% humidity and 4° C., before it was blotted for 5s with blot force 5 and plunge frozen into liquid ethane using a Vitrobot mark IV plunge freezing device (Thermo Fisher Scientific). […] Using the blob picker, 3,114,152 particles were picked and detected of which 2,058,399 were extracted (search particle diameter […], 588 box size), of which 559,748 particles remained after multiple rounds of 2D classification. […]
Target sequence in this assay (Q96P20 3-1036): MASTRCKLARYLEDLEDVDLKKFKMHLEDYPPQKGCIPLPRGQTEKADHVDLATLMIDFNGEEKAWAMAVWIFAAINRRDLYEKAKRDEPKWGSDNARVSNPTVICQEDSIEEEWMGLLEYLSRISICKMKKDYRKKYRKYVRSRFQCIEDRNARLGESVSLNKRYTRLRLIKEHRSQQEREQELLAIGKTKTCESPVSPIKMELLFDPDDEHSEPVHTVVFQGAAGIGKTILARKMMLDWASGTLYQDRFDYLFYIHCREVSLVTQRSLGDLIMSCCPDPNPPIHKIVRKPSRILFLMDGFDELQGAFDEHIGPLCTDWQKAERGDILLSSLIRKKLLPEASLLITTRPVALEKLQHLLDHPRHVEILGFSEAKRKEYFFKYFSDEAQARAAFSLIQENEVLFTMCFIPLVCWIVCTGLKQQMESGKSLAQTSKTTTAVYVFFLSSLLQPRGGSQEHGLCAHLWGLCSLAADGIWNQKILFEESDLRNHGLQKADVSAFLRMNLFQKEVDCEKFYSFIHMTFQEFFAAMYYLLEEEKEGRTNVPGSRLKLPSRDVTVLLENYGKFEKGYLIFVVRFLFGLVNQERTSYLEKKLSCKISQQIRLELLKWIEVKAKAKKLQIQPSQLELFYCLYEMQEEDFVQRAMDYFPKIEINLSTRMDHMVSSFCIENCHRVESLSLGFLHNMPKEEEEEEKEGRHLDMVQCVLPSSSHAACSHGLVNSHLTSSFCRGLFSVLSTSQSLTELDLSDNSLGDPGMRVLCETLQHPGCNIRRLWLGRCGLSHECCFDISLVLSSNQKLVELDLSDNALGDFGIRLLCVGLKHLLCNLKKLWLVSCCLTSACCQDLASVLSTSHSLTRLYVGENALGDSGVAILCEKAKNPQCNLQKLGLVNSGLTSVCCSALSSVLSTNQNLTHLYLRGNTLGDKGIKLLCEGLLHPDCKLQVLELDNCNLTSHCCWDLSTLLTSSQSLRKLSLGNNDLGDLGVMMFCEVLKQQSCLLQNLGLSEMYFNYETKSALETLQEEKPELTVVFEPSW

The subject of another experiment is foot gout mouse model. The experiment is described as follows: Foot gout mouse model. The experiment is classed as in vivo. The note with it: for swelling: FIG. 16 and FIG. 17.
For a further experiment, the system named is DIO mice. The experiment is described as follows: Diet-induced obesity (DIO) mouse model. The format is in vivo. The note with it: for Day 28 BW % change vs. DIO/VEH / Day 28 BW % change vs. baseline / Day 14 BW % change vs. baseline: po; for body weight of high fat DIO mice / food consumption of high fat DIO mice: summary, comparable to the effect of Semaglutide; for fat mass: FIG. 15.

[3] abbreviates: DIO mice, 5 to 100/75 mpk QD PO, FIG. 10.
[4] abbreviates: DIO mice, 100/75 mpk, qd (75 mpk since day 9).
[5] abbreviates: DIO mice, doses of 50 mpk or higher, FIG. 11.
Where [6] appears, read: DIO mice, doses of 50 mpk or higher, treatment for 4 weeks, FIG. 13.
[7] abbreviates: Compound 096/211 study, FIGS. 14A and 14B.
The mark [8] stands for this setting: DIO mice, Compound 096/211 study, FIG. 14.
Setting [9] is: DIO mice, Compound 096/211 study.

Some results are limits rather than exact numbers.

As a reminder, the IC50 is the concentration at which inhibition is half-maximal. Read a high IC50 as weaker potency in that assay.

`CCOc1cc(C(=O)N(C)[C@H](CCO)c2cncc3cn[nH]c23)ccc1-c1cccc(F)c1` [Compound 007] showed an IC50 on NLRP3 [1] below 100 nM. At NLRP3 [2], the “binding site on NLRP3” value is “binds in a pocket on the surface of the NACHT domain of NLRP3”.
In the case of `CCOc1cc(C(=O)N(C)[C@H](CCN(C)C)c2cncc3cn[nH]c23)ccc1-c1cccc(F)c1` [Compound 040], in the experiment with foot gout mouse model, the “treatment mode in foot gout model” value was “can be used as both a preventative and therapeutic treatment”; the swelling entry is recorded as “reduce swelling in a foot gout mouse model in a dose dependent manner”. The compound further returned an IC50 on NLRP3 [1] below 100 nM. In addition, the “body weight of DIO mice” value in the experiment with DIO mice (5 to 100/75 mpk QD PO, FIG. 8) was “dose-dependent effect on reducing body weight”. For the same compound, in the experiment with DIO mice (DIO mice, 5 mpk, qd), the “Day 28 BW % change vs. DIO/VEH” value worked out at 0.6% and the “Day 28 BW % change vs. baseline” value is given as 4.6%. The food consumption entry with DIO mice (DIO mice, 5 to 100/75 mpk QD PO, FIG. 9) is given as “dose-dependent effect on reducing food consumption”. Also, in the experiment with DIO mice (setting [3]), the “fat mass to body weight percentage” value is reported as “dose-dependent effect on reducing fat mass to body weight percentage” and the “lean mass to body weight percentage” value was “maintaining lean mass to body weight percentage”. Also, in the experiment on DIO mice (DIO mice, 20 mpk, qd), the “Day 28 BW % change vs. DIO/VEH” value is on record as −2.7% and the “Day 28 BW % change vs. baseline” value is on record as 1.3%. In the experiment on DIO mice (DIO mice, 50 mpk, qd), the “Day 28 BW % change vs. DIO/VEH” value is reported as −11.6% and the “Day 28 BW % change vs. baseline” value is recorded as −7.6%. In the experiment with DIO mice (setting [4]), the “Day 28 BW % change vs. DIO/VEH” value is recorded as −22.0% and the “Day 28 BW % change vs. baseline” value is given as −17.9%. For the same compound, the “inguinal fat to body weight percentage or muscle tissues to body weight percentage” value in the experiment on DIO mice (DIO mice, compared with Semaglutide treated mice, FIG. 13) is “no significant difference from Semaglutide treated mice”. In addition, in the experiment on DIO mice (setting [5]), the fasting glucose result is “significantly reduced fasting glucose” and the insulin sensitivity result is listed as “improved insulin sensitivity”. In the experiment with DIO mice (setting [6]), the inguinal fat weight entry was “significantly reduced” and the liver weight result is “significantly reduced”. Also, in the experiment with DIO mice, the “body weight of high fat DIO mice” value is “significantly reduced” and the “food consumption of high fat DIO mice” value was “significantly reduced”.
With `CCOc1cc(C(=O)N(C)[C@H](CCN(C)C)c2cncc3cn[nH]c23)ccc1-c1ccccc1` [Compound 096], the swelling entry with foot gout mouse model is reported as “reduce swelling in a foot gout mouse model in a dose dependent manner”. Moreover, the 50% inhibitory concentration (IC50) at NLRP3 [1] was below 100 nM. Further, the “body weight of DIO mice” value with DIO mice (setting [7]) is given as “dose-dependent effect on reducing body weight”. Also, the “Day 14 BW % change vs. baseline” value in the experiment with DIO mice (DIO mice, 50 mpk, qd) is reported as −11.9%. For the same compound, in the experiment with DIO mice (setting [8]), the food consumption result was “dose-dependent effect on reducing food consumption”. In the experiment on DIO mice (setting [9]), the fat mass result is “caused a change in fat mass”. Further, in the experiment with DIO mice, the “body weight of high fat DIO mice” value is “significantly reduced” and the “food consumption of high fat DIO mice” value is “significantly reduced”.
At NLRP3 [1], `[2H]C([2H])([2H])N(CC[C@H](c1cncc2cn[nH]c12)N(C)C(=O)c1ccc(-c2cccc(F)c2)c(OCC)c1)C([2H])([2H])[2H]` [Compound 211] had an IC50 below 100 nM. In addition, the “body weight of DIO mice” value in the experiment with DIO mice (setting [7]) is given as “dose-dependent effect on reducing body weight”. The “Day 14 BW % change vs. baseline” value with DIO mice (DIO mice, 50 mpk, qd) is given as −14.9%. For the same compound, the food consumption entry in the experiment with DIO mice (setting [8]) is “dose-dependent effect on reducing food consumption”. Also, the fat mass entry in the experiment with DIO mice (setting [9]) was “caused a change in fat mass”. In the experiment with DIO mice, the “body weight of high fat DIO mice” value is given as “significantly reduced” and the “food consumption of high fat DIO mice” value is given as “significantly reduced”.
`CCOc1cc(C(=O)N(Cc2cncc3cn[nH]c23)[C@H]2C[C@@H](N(C)C)C2)ccc1-c1cccc(C#N)c1` [Compound 290] yielded an IC50 at NLRP3 [1] below 100 nM.
On NLRP3 [1], `CCOc1cc(C(=O)N(Cc2cncc3cn[nH]c23)[C@H]2C[C@@H](NC)C2)ccc1-c1cccc(C#N)c1` [Compound 291] had an IC50 below 100 nM.
As to `CCOc1cc(C(=O)N(Cc2cccc3cn[nH]c23)[C@H]2C[C@@H](N)C2)ccc1-c1cccc(C#N)c1` [Compound 292], the IC50 on NLRP3 [1] is below 100 nM.
In turn, `CCOc1cc(C(=O)N(Cc2cccc3cn[nH]c23)[C@H]2C[C@@H](N(C)C)C2)ccc1-c1cccc(C#N)c1` [Compound 293] registered a concentration for half-maximal inhibition (IC50) against NLRP3 [1] below 100 nM.
Still for that read-out and setting: the result for `CCOc1cc(C(=O)N(Cc2cncc3cn[nH]c23)[C@H]2CC[C@@H]2N)ccc1-c1cccc(F)c1` [Compound 294] reads 500 to 1000 nM; that for `CCOc1cc(C(=O)N(Cc2cncc3cn[nH]c23)[C@H]2CC[C@H]2N)ccc1-c1cccc(Cl)c1` [Compound 295], 100 to 500 nM.
With `CCOc1cc(C(=O)N(C)[C@H](CCC2CN(C)C2)c2cccc3cn[nH]c23)ccc1-c1cccc(F)c1` [Compound 297], the IC50 against NLRP3 [1] lay within 100 to 500 nM.
At NLRP3 [1], `CCOc1cc(C(=O)N(C)[C@H](c2cccc3cn[nH]c23)C2CN(C)C2)ccc1-c1cccc(F)c1` [Compound 298] came in with a 50% inhibitory concentration (IC50) below 100 nM.
The same measure, in the same setting: the result for `CCOc1cc(C(=O)N(C)[C@@H](CCN)c2cnc(C)c3cn[nH]c23)ccc1C` [Compound 299] reads 1000 to 15000 nM; that for `CCOc1cc(C(=O)N(Cc2cncc3cn[nH]c23)[C@H]2CC[C@H]2N)ccc1-c1cccc(F)c1` [Compound 300], 100 to 500 nM.
